{"source": "patent US10722637B2", "about": "“Cartridge and method for increasing myocardial function” (SeaStar Medical, Inc., priority 2012, dated 2020)", "key": {"[1]": {"tested_on": "leukocytes in porcine blood", "assay": "Microscopic flow chamber: leukocyte interaction with polysulfone membrane", "format": "cell-based", "description": "A custom microscopic flow chamber system was set up to enable microscopic analysis of leukocyte interaction with the SCD membrane. The flow chamber consisted of a polycarbonate housing with an inlet and outlet for perfusion. A polysulfone membrane was affixed to the polycarbonate block with a gasket which directed shear flow. The thickness of the gasket (100 μm) along with the length (2 cm) and the width of the channel (1.5 mm) determined the volume of the flow chamber. Microscopic imaging was accomplished through an optical window made up of a cover glass affixed to the bottom of the polycarbonate block. Either isolated blood or purified leukocytes were used for this study.\nIsolated blood was prone to activation from excessive handling. […] Blood passed through the flow chamber at a rate of 20 μL/min with calculated shear forces between 1-10 dynes/cm^2. […]\nMicroscopic analysis of cell capture events was accomplished using either a Zeiss Axiovert 200M or Axio-Observer epifluorescence microscope equipped with a microscope stage-top incubator to control environmental temperature and CO2 content. Fluorescence images were acquired with either a Zeiss MRm3 or an Icc1 camera at a frequency of 1 frame/second for 5 minutes, for analysis of leukocyte/membrane interaction, and at 1 frame/minute for 1 hour sequences, for analysis of long term leukocyte attachment. […]"}, "[2]": {"tested_on": "leukocytes in human whole blood", "assay": "In vitro whole blood assay of leukocyte activation", "format": "cell-based", "conditions": "for CD11b: n = 3; for Lactoferrin: n = 4; for Elastase: n = 5", "experimental": "Heparinized human whole blood was added to tubes with or without lipopolysaccharide (LPS) (10 μg/mL) or formyl-Methionyl-Leucyl-Phenylalanine (fMLF, 50 nM). […] The release of IL-6, IL-8, or IL-10 was measured using commercially available ELISA kits from R&D Systems. The release of elastase was measured using a commercially available ELISA kit from Bender MedSystems. The release of lactoferrin was measured using a commercially available ELISA kit from EMD Chemicals. […] Samples were incubated for various times at 37° C. and 5% CO2. CD11b activation was measured using an FITC-conjugated mouse anti-human antibody (AbD Serotech) and evaluated on an Accuri C6 flow cytometer."}}}
{"smiles": "O=C(O)CC(O)(CC(=O)O)C(=O)O", "note": "[Citrate]", "values": [{"measurement": "leukocyte attachment to polysulfone membranes during shear flow", "setting": "[1]; LPS activated, low ionized calcium flow chambers", "value": "statistically significant decrease"}, {"measurement": "blood iCa level", "setting": "[1]; after addition of citrate (from 1.32±0.05)", "value": "0.32 ± 0.05", "unit": "mmol/L"}, {"measurement": "CD11b", "setting": "[2]; Baseline", "value": "7.32 ± 0.47", "unit": "MFI × 10^3"}, {"measurement": "Lactoferrin", "setting": "[2]; Baseline", "value": "1.67 ± 0.29", "unit": "mg/mL"}, {"measurement": "Elastase", "setting": "[2]; Baseline", "value": "0.94 ± 0.14", "unit": "mg/mL"}, {"measurement": "CD11b", "setting": "[2]; Stimulated (LPS, fMLF)", "value": "28.72 ± 2.95", "unit": "MFI × 10^3"}, {"measurement": "Lactoferrin", "setting": "[2]; Stimulated (LPS, fMLF)", "value": "3.43 ± 0.18", "unit": "mg/mL"}, {"measurement": "Elastase", "setting": "[2]; Stimulated (LPS, fMLF)", "value": "0.91 ± 0.28", "unit": "mg/mL"}, {"measurement": "iCa levels", "setting": "[2]; citrate treated samples (1.25 mM nontreated)", "value": "< 0.25", "unit": "mM"}]}
